Laboratory results: US7390910B2, “Compounds for treating tumors” (priority 2003, dated 2008)

How the values were obtained:
[1] = test system: bovine microtubule-associated protein (MAP)-rich tubulin; assay type: biochemical; details: 0.3 uM
Description: Tubulin Polymerization Assays. For in vitro tubulin polymerization assays, bovine microtubule-associated protein (MAP)-rich tubulin, PEM buffer [80 mM Na-PIPES (pH 6.9), 1 mM MgCl2, and 1 mM EGTA], and GTP are purchased from Cytoskeleton (Denver, Colo.). MAP-rich tubulin (final concentration 1.5 mg/ml) is dissolved in cold PEM buffer containing 1 mM GTP (GPEM) and centrifuged at 12,000×g for 10 min at 4° C. The tubulin solution (100 μl/well) is added rapidly to wells of a low-volume, 96-well plate already containing duplicate aliquots (10 μl) of test compounds in GPEM. […] Control wells contained the same final concentration of DMSO (0.3%). After initiation of the reaction, absorbance at 340 nm is measured every minute for 60 min at 24° C. using a SpectraMax Plus plate reader (Molecular Devices, Sunnyvale, Calif.).

KB cells = test: cells; assay type: cell-based; details: 3 days, SRB
Description: (§1) Cell Survival Assay: Standard Pharmacological Test Procedure. […] Compounds are incubated with cells for 3 days.

KB85 = test: cells; assay type: cell-based; details: for IC50: 72 h, 3 days, SRB
Description: as §1

KBV1 = test: cells; assay type: cell-based; details: for IC50 / inhibition at 3 µM: Homo sapiens; for IC50: KB-V1, 72 h, 3 days, SRB; for inhibition at 3 µM: KB-V1, 3000 nM
Description: as §1

Molecule	Tubulin Polym. % inhibition at 0.3 uM [1] [%]	IC50 (KB cells; Homo sapiens, KB, 72 h) [µM]	IC50 (KB85) [µM]	IC50 (KBV1) [µM]	inhibition at 3 µM (KBV1) [%]	IC50 (KB cells) [µM]	KB85 % inhibition @ 3000 nM (KB85; 3000 nM) [%]	KBV1 % inhibition @ 3000 nM (KBV1; 3000 nM) [%]
CN[C@H](C(=O)N[C@H](C(=O)N(C)[C@H](/C=C(\C)C(=O)N1CCN(Cc2ccccc2)CC1)C(C)C)C(C)(C)C)C(C)(C)c1ccc(C)c(C)c1 [Example 12, N,β,β,3,4-Pentamethyl-L-phenylalanyl-N^1-[(1S,2E)-4-(4-benzylpiperazin-1-yl)-1-isopropyl-3-methyl-4-oxobut-2-enyl]-N^1,3-dimethyl-L-valinamide]	51	0.048	0.065	1.33				
CN[C@@H](C(=O)N[C@H](C(=O)N(C)[C@H](/C=C(\C)C(=O)O)C(C)C)C(C)(C)C)C1(C)CCCc2ccccc21 (single isomer, unassigned) [Example 60]	94	0.0091	0.017	0.427				
CN[C@H](C(=O)N[C@H](C(=O)N(C)[C@H](/C=C/P(=O)(OC)OC)C(C)C)C(C)(C)C)C(C)(C)c1ccccc1 [Example 68, N,β,β-trimethyl-L-phenylalanyl-N^1-[(1S,2E)-3-(dimethoxyphosphoryl)-1-isopropylprop-2-enyl]-N^1,3-dimethyl-L-valinamide]	45	1.98	2.08		8			
CN[C@H](C(=O)N[C@H](C(=O)N(C)[C@H](/C=C1\NC(=O)NC1=O)C(C)C)C(C)(C)C)C(C)(C)c1ccccc1 [Example 85, N,β,β-trimethyl-L-phenylalanyl-N^1-{(1S)-1-[(Z)-(2,5-dioxo-4-imidazolidinylidene)methyl]-2-methylpropyl}-N^1,3-dimethyl-L-valinamide]	59	1.07	1.74		10			
CN[C@H](C(=O)N[C@H](C(=O)N(C)[C@H](/C=C(\C)C(=O)O)C(C)C)C(C)(C)C)C1(C)CCCc2ccccc21 (stereo partly drawn) [Example 59, (2E,4S)-2,5-dimethyl-4-(methyl{3-methyl-N-[(2S)-2-(methylamino)-2-(1-methyl-1,2,3,4-tetrahydro-1-naphthalenyl)ethanoyl]-L-valyl}amino)-2-hexenoic acid]	93	0.0055	0.0066	0.076				
CN[C@@H](C(=O)N[C@H](C(=O)N(C)[C@H](/C=C(\C)C(=O)N1CCOCC1)C(C)C)C(C)(C)C)C(C)(C)c1cc(C)cc(C)c1 [Example 5, N,β,β,3,5-Pentamethyl-D-phenylalanyl-N^1-[(1S,2E)-1-isopropyl-3-methyl-4-morpholin-4-yl-4-oxobut-2-enyl]-N^1,3-dimethyl-L-valinamide]	57	0.207	0.459		40			
CN[C@@H](C(=O)N[C@H](C(=O)N(C)[C@H](/C=C(\C)C(=O)O)C(C)C)C(C)(C)C)C12CC3CC(CC(C3)C1)C2 [Example 56, (2E,4S)-4-[{N-[(2R)-2-(1-adamantyl)-2-(methylamino)ethanoyl]-3-methyl-L-valyl}(methyl)amino]-2,5-dimethyl-2-hexenoic acid]		0.468	0.575		11			
Ethyl (E,4S)-4-[((2S)-2-{[(2S)-2-azido-3-methyl-3-phenylbutanoyl]amino}-3,3 -dimethylbutanoyl)(methyl)amino]-2,5-dimethyl-2-hexenoate and ethyl (E,4S)-4-[((2S)-2-{[(2R)-2-azido-3-methyl-3-phenylbutanoyl]amino}-3,3-dimethylbutanoyl)(methyl)amino]-2,5-dimethyl-2-hexenoate [Example 93]						2.51	30	30
